Data as given in patent US20210052741A1, “GENE THERAPY METHODS AND COMPOSITIONS USING AUXOTROPHIC REGULATABLE CELLS” (AUXOLYTIC LTD, priority 2018, published 2021).
“And” between values parts separate entries of the source, which are not always exact repeats. Equal values may be shown once.

How the values were obtained:
Type in all cases: cell-based, human
[1] = test system: UMPS^KO/KO/GFP^+ K562 cells; assay: Auxotrophy assay in K562 cells
Experimental: The sorted UMPS^KO/KO/GFP^+ cell population were subjected to assays evaluating their auxotrophy and their resistance to 5-FOA. The cells were split into samples of equal numbers and cultured in the presence of different concentrations of Uridine or without. […] Cell growth was inhibited at a lower concentration (25 μg/ml) while cell numbers declined with a lower concentration or no Uridine (FIG. 6E).

Mock T cells = assay: Uracil auxotrophy growth assay after 5-FOA selection; details: after 4 days 5-FOA selection, 4 days in supplemented media, without serum
Experimental: To assay whether or not the cells selected for by 5-FOA treatment were uracil auxotrophs, mock or UMPS targeted T cells were exposed to 5-FOA as shown in Example 4. Following 4 days of 5-FOA selection, the population of cells was split into an uracil containing media (UMP, uridine or both) and an uracil deficient media. A growth assay was subsequently performed by cell counting after following 4 days incubation in test media (Day 8) (FIG. 4A). In all cases, cell growth in the mock targeted cell cultures was negligible and independent of uracil source supplementation—indicating successful killing of non-UMPS targeted cells during the 5-FOA selection step (FIG. 4B-FIG. 4D).

GFP+ UMPS^KO/KO hESCs = assay: 5-FOA resistance in hESC co-culture (FACS); details: for Viable cell counts, GFP+: co-culture
Excerpt: (§1) To assess resistance to 5-FOA, the UMPS-KO hESCs were genetically engineered to express GFP from an expression cassette integrated into a safe-harbor locus for easier identification in co-culture with UMPS-WT cells.
(§2) These UMPS^KO/KO hESCs were mixed with UMPS^WT/WT cells that were not expressing GFP and followed up by fluorescence-activated cell sorting (FACS) analysis in the presence of different concentrations of 5-FOA. Table 16 provides counts of viable GFP+ and GFP− cells after culture with different 5-FOA concentrations.

GFP- UMPS^WT/WT hESCs = assay: 5-FOA resistance in hESC co-culture (FACS); details: for Viable cell counts, GFP−: co-culture
Excerpt: as §1, §2

UMPS knockout T cells = assay: Cell counts after recovery post-electroporation; details: 4 days recovery post electroporation, no serum, with 5-FOA
Experimental: (§3) K562 cells (acquired from ATCC) and Nalm6 cells (kindly provided by C. Mackall) were cultured in RPMI 1640 (HyClone) supplemented with 10% bovine growth serum, 2 mM L-glutamine and 100 U/ml Penicillin and 100 U/ml Streptomycin. T cells were either used fresh after isolation from buffy coats obtained from healthy donors. T cells were isolated through a Ficoll density gradient centrifugation followed by magnetic enrichment using the Pan T Cell Isolation Kit (Miltenyi Biotec).
(§4) Cells were cryopreserved in BAMBANKER™ medium. After thawing cells were cultured at 37° C., 5% CO2 in X-Vivo 15 (Lonza) supplemented with or without 5% human serum (Sigma-Aldrich) and […] recombinant IL-2 (Peprotech) and 10 ng/ml human recombinant IL-7 (BD Biosciences). […]
(§5) Genomic DNA was harvested using QUICKEXTRACT™ DNA Extraction Kit (Epicentre). Cells were counted on an automated cell counter using Trypan blue staining or on a CytoFLEX flow cytometer (Beckman Coulter) with automatic plate reader using COUNTBRIGHT™ beads (ThermoFisher) as a reference for normalizing the values. Alternatively, cells were analyzed after staining with fluorochrome-labelled antibodies (Biolegend) on an ACCURI™ C6 flow cytometer (BD Biosciences), which also measures volumes, or a FACS ARIA™ II SORP cell sorter (BD Biosciences). Data was analyzed using Excel (Microsoft) and FlowJo software (Tree Star). […]

mock edited T cells = assay: Cell counts after recovery post-electroporation; details: 4 days recovery post electroporation, no serum, with 5-FOA
Experimental: as §3, §4, §5

Row | SMILES | Number of cells per ml, Day 1 ([1]; 2.5 ug/ml Uridine) | Number of cells per ml, Day 1 ([1]; 25 ug/ml Uridine) | Number of cells per ml, Day 1 ([1]; 250 ug/ml Uridine) | Number of cells per ml, Day 8 ([1]; 250 ug/ml Uridine) | cell growth ([1]; Uridine 25 μg/ml) | cell growth ([1]; Uridine 250 μg/ml) | cell numbers ([1]; lower Uridine concentration (2.5 μg/ml) or no Uridine) | Cells counts on Day 8 (Mock T cells) | tolerance of UMPS-KO cells to 5-FOA (GFP+ UMPS^KO/KO hESCs; 0.25 μg/ml) | Viable cell counts, GFP+ (GFP+ UMPS^KO/KO hESCs; 5-FOA 0.25 μg/ml) | Viable cell counts, GFP+ (GFP+ UMPS^KO/KO hESCs; 5-FOA 2.5 μg/ml) | Viable cell counts, GFP+ (GFP+ UMPS^KO/KO hESCs; 5-FOA 25 μg/ml) | proliferation of UMPS-KO cells in 5-FOA (GFP+ UMPS^KO/KO hESCs; concentrations above 0.25 μg/ml) | cells GFP+ (GFP+ UMPS^KO/KO hESCs; groups with 5-FOA (54.8% without 5-FOA)) [%] | sensitivity of UMPS-WT cells to 5-FOA (GFP- UMPS^WT/WT hESCs; all tested concentrations (0.25-25 μg/ml)) | Viable cell counts, GFP− (GFP- UMPS^WT/WT hESCs; 5-FOA 0.25 μg/ml) | Viable cell counts, GFP− (GFP- UMPS^WT/WT hESCs; 5-FOA 2.5 μg/ml) | Viable cell counts, GFP− (GFP- UMPS^WT/WT hESCs; 5-FOA 25 μg/ml) | Intact cells (absolute) (UMPS knockout T cells) | Intact cells (absolute) (mock edited T cells)
1 | O=c1ccn([C@@H]2O[C@H](CO)[C@@H](O)[C@H]2O)c(=O)[nH]1 [Uridine] | 57.83 cells per ml and 49.52 cells per ml and 40.56 cells per ml | 60.92 cells per ml and 69.81 cells per ml and 58.10 cells per ml | 83.41 cells per ml and 109.11 cells per ml and 64.28 cells per ml | 631.12 cells per ml and 629.35 cells per ml and 318.17 cells per ml | inhibited | expanded rapidly | declined | 1249 and 687 | – | – | – | – | – | – | – | – | – | – | – | –
2 | O=C(O)c1[nH]c(=O)[nH]c(=O)c1F [5-FOA, 5-fluoroorotic acid] | – | – | – | – | – | – | – | – | tolerated the concentration of 0.25 μg/ml well | 142820 | 11812.5 | 8455.98 | impaired proliferation at higher concentrations | 95.0 | sensitive to all tested 5-FOA concentrations | 5180 | 687.5 | 334.02 | 395 | 580
